US6534516B1, “Androgen receptor modulator compounds and methods” (Ligand Pharmaceuticals Incorporated, priority 1996, dated 2003)
Read-outs that look alike come from different tables or passages of the source.

What was measured:
Experiment in all cases: cell-based
human AR [1] = molecular target: T1, human AR (Homo sapiens, UniProt P10275); conditions: read-out: AR Binding Ki
T1 construct: expressed in transfected cells; host or cells: CV-1 cells (African green monkey kidney fibroblasts)
T1 sequence (P10275 1-920): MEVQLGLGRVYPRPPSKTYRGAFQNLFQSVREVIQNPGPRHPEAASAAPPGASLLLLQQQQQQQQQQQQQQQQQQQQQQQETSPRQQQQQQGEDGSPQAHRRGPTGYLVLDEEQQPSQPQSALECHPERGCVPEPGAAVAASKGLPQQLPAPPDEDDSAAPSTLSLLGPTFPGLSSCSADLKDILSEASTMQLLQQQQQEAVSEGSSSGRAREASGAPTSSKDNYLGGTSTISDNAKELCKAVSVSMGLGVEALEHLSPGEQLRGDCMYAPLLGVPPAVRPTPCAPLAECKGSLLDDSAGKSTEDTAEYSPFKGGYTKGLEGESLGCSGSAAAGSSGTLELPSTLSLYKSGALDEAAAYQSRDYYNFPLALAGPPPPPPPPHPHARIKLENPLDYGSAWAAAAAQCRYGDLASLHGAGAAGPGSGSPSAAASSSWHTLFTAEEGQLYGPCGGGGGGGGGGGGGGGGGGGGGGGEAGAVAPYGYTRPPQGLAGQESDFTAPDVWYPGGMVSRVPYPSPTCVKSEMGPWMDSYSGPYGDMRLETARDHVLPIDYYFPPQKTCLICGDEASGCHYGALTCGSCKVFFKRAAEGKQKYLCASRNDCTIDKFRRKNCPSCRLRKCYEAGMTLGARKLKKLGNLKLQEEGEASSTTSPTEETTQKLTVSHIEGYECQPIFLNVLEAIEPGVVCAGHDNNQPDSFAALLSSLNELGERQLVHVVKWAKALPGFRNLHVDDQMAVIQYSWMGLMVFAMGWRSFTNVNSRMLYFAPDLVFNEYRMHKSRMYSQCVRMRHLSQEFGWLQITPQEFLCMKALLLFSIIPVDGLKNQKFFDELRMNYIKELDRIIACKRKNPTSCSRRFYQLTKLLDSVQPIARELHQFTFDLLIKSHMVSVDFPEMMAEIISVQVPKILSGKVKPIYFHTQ

human AR [2] = molecular target: T1, human AR; assay type: cell-based; conditions: for AR Antagonist CV-1 Cells Efficacy: antagonist mode, DHT at its EC50, % of maximal inhibition, na = not active; for EC50: read-out: AR Agonist CV-1 Cells Potency; for IC50: read-out: AR Antagonist CV-1 Cells Potency; for AR activity profile (in words): summary of Tables 1 and 2
Excerpt: The co-transfection assay provides a method for identifying functional agonists and partial agonists which mimic, or antagonists which inhibit, the effect of native hormones, and quantifying their activity for responsive IR proteins. In this regard, the co-transfection assay mimics an in vivo system in the laboratory. Importantly, activity in the co-transfection assay correlates very well with known in vivo activity, such that the co-transfection assay functions as a qualitative and quantitative predictor of a tested compounds in vivo pharmacology. See, e.g., T. Berger et al. 41 J. Steroid Biochem. Molec.
CV-1 cells (African green monkey kidney fibroblasts) were cultured in the presence of Dulbecco's Modified Eagle Medium (DMEM) supplemented with 10% charcoal resin-stripped fetal bovine serum then transferred to 96-well microtiter plates one day prior to transfection.
The reporter plasmid, MTV-LUC, contains the cDNA for firefly luciferase (LUC) under control of the mouse mammary tumor virus (MTV) long terminal repeat, a conditional promoter containing an androgen response element. See e.g., Berger et al. supra. In addition, pRS-β-Gal, coding for constitutive expression of E. coli β-galactosidase (β-Gal), was included as an internal control for evaluation of transfection efficiency and compound toxicity.
Three to four replicates were used for each sample.
After 40 hours, the cells were washed with PBS, lysed with a Triton X-100-based buffer and assayed for LUC and β-Gal activities using a luminometer or spectrophotometer, respectively. For each replicate, the normalized response (NR) was calculated as:
where β-Gal rate=β-Gal•1×10^−5/β-Gal incubation time.

PR = molecular target: T2, PR (Homo sapiens, UniProt P06401)
T2 sequence (P06401 1-933): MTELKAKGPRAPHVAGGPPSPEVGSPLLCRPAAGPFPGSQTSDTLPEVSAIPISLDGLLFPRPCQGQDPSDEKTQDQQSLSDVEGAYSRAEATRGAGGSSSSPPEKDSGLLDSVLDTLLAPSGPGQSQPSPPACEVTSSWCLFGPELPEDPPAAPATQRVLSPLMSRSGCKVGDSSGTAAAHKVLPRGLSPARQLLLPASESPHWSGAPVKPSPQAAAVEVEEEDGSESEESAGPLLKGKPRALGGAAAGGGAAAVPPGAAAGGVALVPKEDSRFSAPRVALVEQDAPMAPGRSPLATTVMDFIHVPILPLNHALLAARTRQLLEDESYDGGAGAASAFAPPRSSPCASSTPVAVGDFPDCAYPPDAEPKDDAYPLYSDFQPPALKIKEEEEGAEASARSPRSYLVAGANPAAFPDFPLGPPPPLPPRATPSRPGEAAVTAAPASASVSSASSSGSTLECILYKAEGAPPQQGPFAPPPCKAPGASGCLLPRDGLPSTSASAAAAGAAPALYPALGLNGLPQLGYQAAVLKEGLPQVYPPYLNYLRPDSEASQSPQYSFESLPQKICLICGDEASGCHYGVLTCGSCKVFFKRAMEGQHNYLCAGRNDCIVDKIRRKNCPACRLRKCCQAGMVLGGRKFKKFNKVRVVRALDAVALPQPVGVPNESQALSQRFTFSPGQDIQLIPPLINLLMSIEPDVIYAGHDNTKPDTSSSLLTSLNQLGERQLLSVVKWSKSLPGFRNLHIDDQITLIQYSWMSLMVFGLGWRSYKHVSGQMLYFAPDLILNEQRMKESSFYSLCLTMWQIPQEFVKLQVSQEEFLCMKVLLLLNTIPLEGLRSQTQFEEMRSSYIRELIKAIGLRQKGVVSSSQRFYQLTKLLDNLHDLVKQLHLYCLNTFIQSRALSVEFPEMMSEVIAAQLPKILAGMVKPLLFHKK

[3] = agonist mode, percent maximal response relative to reference agonist DHT, na = not active (efficacy < 10 and potency > 10,000)

| SMILES | Ki (human AR [1]) [nM] | AR Agonist CV-1 Cells Efficacy (human AR [2]) [%] | AR Antagonist CV-1 Cells Efficacy (human AR [2]) [%] | EC50 (human AR [2]) [nM] | IC50 (human AR [2]) [nM] | AR activity profile (in words) (human AR [2]) | EC50 (human AR [2]; agonist mode, na = not active (efficacy < 10 and potency > 10,000)) [nM] | AR Agonist CV-1 Cells Efficacy (human AR [2]; [3]) [%] | IC50 (PR) [nM] |
| --- | --- | --- | --- | --- | --- | --- | --- | --- | --- |
| CC1CC(C)(C)Nc2cc3[nH]c(=O)c(F)c(C(F)(F)F)c3cc21 (centres unmarked) [Compound 112, 7-Fluoro-1,2,3,4-tetrahydro-2,2,4-trimethyl-6-trifluoromethyl-8-pyridono[5,6-g]quinoline] | 61 ± 16 | 21 ± 6 | 42 ± 10 | 26 ± 15 | 20 ± 1 | highly selective AR antagonists |  |  |  |
| CC1=CC(C)(C)Nc2cc3[nH]c(=O)c(F)c(C(F)(F)F)c3cc21 [Compound 111, 7-Fluoro-1,2-dihydro-2,2,4-trimethyl-6-trifluoromethyl-8-pyridono[5,6-g]quinoline] | 12 | 16 ± 2 | 53 ± 5 | 227 ± 59 | 43 ± 8 | mixed AR agonists/antagonists |  |  |  |
| CC1CC(C)(C)n2oc(=O)c3c4[nH]c(=O)cc(C(F)(F)F)c4cc1c32 (centres unmarked) [Compound 113, 1,10-[1,3-dihydro-3-oxo-(2,1-isoxazolyl)]-1,2,3,4-tetrahydro-2,2,4,10-tetramethyl-6-trifluoromethyl-8-pyridono[5,6-g]quinoline] | 10 |  | 48 |  |  | mixed AR agonists/antagonists | 245 | 31 |  |
| CC1(C)CCc2cc3c(C(F)(F)F)cc(=O)[nH]c3cc2N1O [Compound 118, 1,2,3,4-Tetrahydro-1-hydroxy-2,2-dimethyl-6-trifluoromethyl-8-pyridono[5,6-g]quinoline] | 86 ± 29 |  | 70 ± 2 |  | 482 ± 179 |  |  |  |  |
| Cc1c2c(cc3c(C(F)(F)F)c(F)c(=O)[nH]c13)C(C)CC(C)(C)N2 (centres unmarked) [Compound 115, 7-Fluoro-1,2,3,4-tetrahydro-2,2,4,10-tetramethyl-6-trifluoromethyl-8-pyridono[5,6-g]quinoline] | 107 |  | 87 ± 1 |  |  |  |  |  |  |
| CCC1CCN([N+](=O)[O-])c2cc3[nH]c(=O)cc(C(F)(F)F)c3cc21 (racemic) [Compound 127, (R/S)-4-Ethyl-1,2,3,4-tetrahydro-1-nitro-6-(trifluoromethyl)-8-pyridono[5,6-g]quinoline] | 136 | 56 ± 12 |  | 85 ± 36 |  |  |  |  |  |
| Cn1c(=O)cc(C(F)(F)F)c2cc3c(cc21)N(O)C(C)(C)CC3 [Compound 119, 1,2,3,4-Tetrahydro-1-hydroxy-2,2,9-trimethyl-6-trifluoromethyl-8-pyridono[5,6-g]quinoline] | 74 ± 29 |  | 40 ± 12 |  | 1570 ± 1050 |  |  |  |  |
| CC12CCCN1c1cc3[nH]c(=O)c(F)c(C(F)(F)F)c3cc1CC2 (racemic) [Compound 102, (R/S)-3-Fluoro-6,7,7a,11-tetrahydro-7a-methyl-4-trifluoromethyl-2-pyridono[5,6-g]pyrrolidino[1,2-a]quinoline] | 11 |  | 85 ± 1 |  | 193 ± 19 |  |  |  | 398 |
| CN1c2cc3c(cc2CCC1(C)C)c(C(F)(F)F)c(F)c(=O)n3C [Compound 109, 7-Fluoro-1,2,3,4-tetrahydro-1,2,2,9-tetramethyl-6-trifluoromethyl-8-pyridono[5,6-g]quinoline] | 18 ± 7 | 13 ± 8 | 77 ± 4 | 36 ± 45 | 15 ± 2 | highly selective AR antagonists |  |  |  |
| Cn1c(=O)c(F)c(C(F)(F)F)c2cc3c(cc21)NC(C)(C)CC3 [Compound 107, 7-Fluoro-1,2,3,4-tetrahydro-2,2,9-trimethyl-6-trifluoromethyl-8-pyridono[5,6-g]quinoline] | 110 ± 42 |  | 83 ± 3 |  | 38 ± 10 |  |  |  |  |
| CCC1CCN(C(=O)C(F)(F)F)c2cc3[nH]c(=O)cc(C(F)(F)F)c3cc21 (racemic) [Compound 122, (R/S)-4-Ethyl-1,2,3,4-tetrahydro-1-(trifluoroacetyl)-6-(trifluoromethyl)-8-pyridono[5,6-g]quinoline] | 7 ± 2 |  |  | 3 |  |  |  | 100 ± 17 |  |
| Cn1c(=O)c(F)c(C(F)(F)F)c2cc3c(cc21)N1CCCC1(C)CC3 (racemic) [Compound 104, (R/S)-3-Fluoro-6,7,7a,11-tetrahydro-1,7a-dimethyl-4-trifluoromethyl-2-pyridono[5,6-g]pyrrolidino[1,2-a]quinoline] | 93 ± 48 |  | 85 ± 2 |  | 40 ± 9 |  |  |  | 800 |
| CCC1(CC)CCc2cc3c(C(F)(F)F)c(F)c(=O)[nH]c3cc2N1 [Compound 120, 2,2-Diethyl-7-fluoro-1,2,3,4-tetrahydro-6-trifluoromethyl-8-pyridono[5,6-g]quinoline] | 156 ± 24 | 18 ± 3 | 61 ± 5 | 171 ± 95 | 17 ± 2 |  |  |  |  |
| CC1(C)CCc2cc3c(C(F)F)c(F)c(=O)[nH]c3cc2N1 [Compound 106, 6-Difluoromethyl-7-fluoro-1,2,3,4-tetrahydro-2,2-dimethyl-8-pyridono[5,6-g]quinoline] | 73 ± 37 |  | 78 ± 3 |  | 52 ± 14 |  |  |  |  |
